Data on nine molecules can be found in patent US12187746B2, “C26-linked rapamycin analogs as mTOR inhibitors” (Revolution Medicines, Inc., priority 2018, dated 2025).

The test system of one assay is P-P70S6K (T389). The assay can be described thus: Cell based AlphaLISA assay, inhibition of P-P70S6K (T389) in MDA-MB-468 cells. To be noted: Homo sapiens, 4 h, 0.017-1,000 nM, two to four hours at 37° C., AlphaLisa SureFire Ultra, read-out: pIC50 for Inhibition of mTORC1 and mTORC2 Substrate Phosphorylation, p-P70S6K-(T389) (converted). In a few lines:
(§1)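 mTORC1 and mTORC2 activity in cells tracked through AlphaLISA SureFire Ultra detection of the phosphoproteins after incubation and cell lysis; Alpha signal read in duplicate. IC50 from normalized concentration–response regression with control-based normalization.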

Another assay has as its system P-4E-BP1 (T37/46). The assay can be described thus: Cell based AlphaLISA assay, inhibition of P-4E-BP1 (T37/46) in MDA-MB-468 cells. To be noted: Homo sapiens, 4 h, 0.017-1,000 nM, two to four hours at 37° C., AlphaLisa SureFire Ultra, read-out: pIC50 for Inhibition of mTORC1 and mTORC2 Substrate Phosphorylation, p-4E-BP1-(T37/46) (converted). In a few lines: as §1
Another assay has as its system P-Akt (S473). The experiment in a line: Cell based AlphaLISA assay, inhibition of P-Akt (S473) in MDA-MB-468 cells. To be noted: Homo sapiens, 4 h, 0.017-1,000 nM, two to four hours at 37° C., AlphaLisa SureFire Ultra, read-out: pIC50 for Inhibition of mTORC1 and mTORC2 Substrate Phosphorylation, p-AKT1/2/3-(S473) (converted). In a few lines:
as §1

For the molecule `CO[C@H]1C[C@@H]2CC[C@@H](C)[C@@](O)(O2)C(=O)C(=O)N2CCCC[C@H]2C(=O)O[C@H]([C@H](C)C[C@@H]2CC[C@@H](O)[C@H](OC)C2)C[C@@H](O)[C@H](C)/C=C(\C)[C@@H](O)[C@@H](OC)C(=NOCC(=O)N2CCc3nc(N4CCN(CCOCCN5CCN(c6ncc(C(=O)N7CCc8cc(Cn9nc(-c%10ccc%11oc(N)nc%11c%10)c%10c(N)ncnc%109)ccc8C7)cn6)CC5)CC4)ncc3C2)[C@H](C)C[C@H](C)/C=C/C=C/C=C/1C` [Example 61], the IC50 is 1 to 10 nM in the assay on P-P70S6K (T389), 3.16 to 31.6 nM in the assay with P-4E-BP1 (T37/46) and over 1000 nM in the assay on P-Akt (S473).
Taken in the same sequence, the figures for `CO[C@H]1C[C@@H]2CC[C@@H](C)[C@@](O)(O2)C(=O)C(=O)N2CCCC[C@H]2C(=O)O[C@H]([C@H](C)C[C@@H]2CC[C@@H](O)[C@H](OC)C2)C[C@@H](O)[C@H](C)/C=C(\C)[C@@H](O)[C@@H](OC)C(=NOCC(=O)NCc2cnc(N3CCN(C(=O)CCOCCN4CCC(N5CCC(C(=O)N6CCc7cc(Cn8nc(-c9ccc%10oc(N)nc%10c9)c9c(N)ncnc98)ccc7C6)CC5)CC4)CC3)nc2)[C@H](C)C[C@H](C)/C=C/C=C/C=C/1C` [Example 63] were under 1 nM, 3.16 to 31.6 nM and over 1000 nM.
On the same counts, the results for `CO[C@H]1C[C@@H]2CC[C@@H](C)[C@@](O)(O2)C(=O)C(=O)N2CCCC[C@H]2C(=O)O[C@H]([C@H](C)C[C@@H]2CC[C@@H](O)[C@H](OC)C2)C[C@@H](O)[C@H](C)/C=C(\C)[C@@H](O)[C@@H](OC)C(=NOCC(=O)NCc2cnc(N3CCN(C(=O)CCCN4CCN(c5ncc(C(=O)N6CCc7cc(Cn8nc(-c9ccc%10oc(N)nc%10c9)c9c(N)ncnc98)ccc7C6)cn5)CC4)CC3)nc2)[C@H](C)C[C@H](C)/C=C/C=C/C=C/1C` [Example 65] are 1 to 10 nM, 3.16 to 31.6 nM and over 1000 nM.
Consider `CO[C@H]1C[C@@H]2CC[C@@H](C)[C@@](O)(O2)C(=O)C(=O)N2CCCC[C@H]2C(=O)O[C@H]([C@H](C)C[C@@H]2CC[C@@H](O)[C@H](OC)C2)C[C@@H](O)[C@H](C)/C=C(\C)[C@@H](O)[C@@H](OC)C(=NOCC(=O)NCc2cnc(N3CCN(C(=O)CCCN4CCN(c5ncc(C(=O)N6CCC(n7nc(-c8ccc9oc(N)nc9c8)c8c(N)ncnc87)CC6)cn5)CC4)CC3)nc2)[C@H](C)C[C@H](C)/C=C/C=C/C=C/1C` [Example 66], for which the figures for the IC50 with P-P70S6K (T389), with P-4E-BP1 (T37/46) and in the assay on P-Akt (S473) were 1 to 10 nM, over 1000 nM and over 1000 nM, respectively.
`CO[C@H]1C[C@@H]2CC[C@@H](C)[C@@](O)(O2)C(=O)C(=O)N2CCCC[C@H]2C(=O)O[C@H]([C@H](C)C[C@@H]2CC[C@@H](O)[C@H](OC)C2)CC[C@H](C)/C=C(\C)[C@@H](O)[C@@H](OC)C(=NOCC(=O)NCCOCCOCCOCCOCCOCCOCCOCCOCCC(=O)N2CCc3cc(Cn4nc(-c5ccc6oc(N)nc6c5)c5c(N)ncnc54)ccc3C2)[C@H](C)C[C@H](C)/C=C/C=C/C=C/1C` [Example 67]: the figures for the IC50 in the assay with P-P70S6K (T389), in the assay with P-4E-BP1 (T37/46) and in the assay with P-Akt (S473) were under 1 nM, under 3.16 nM and 31.6 to 1000 nM, respectively.
Taken in the same sequence, the figures for `CO[C@H]1C[C@@H]2CC[C@@H](C)[C@@](O)(O2)C(=O)C(=O)N2CCCC[C@H]2C(=O)O[C@H]([C@H](C)C[C@@H]2CC[C@@H](O)[C@H](OC)C2)C[C@@H](O)[C@H](C)/C=C(\C)[C@@H](O)[C@@H](OC)C(=NOCC(=O)NC2CCN(CC(=O)NCCOCCOCCOCCOCCOCCOCCC(=O)N3CCc4cc(Cn5nc(-c6ccc7oc(N)nc7c6)c6c(N)ncnc65)ccc4C3)CC2)[C@H](C)C[C@H](C)/C=C/C=C/C=C/1C` [Example 68] were 1 to 10 nM, 3.16 to 31.6 nM and 31.6 to 1000 nM.
For `CO[C@H]1C[C@@H]2CC[C@@H](C)[C@@](O)(O2)C(=O)C(=O)N2CCCC[C@H]2C(=O)O[C@H]([C@H](C)C[C@@H]2CC[C@@H](O)[C@H](OC)C2)C[C@@H](O)[C@H](C)/C=C(\C)[C@@H](O)[C@@H](OC)C(=NOCC(=O)NCCOCCOCCOCCOCCOCCOCCC(=O)NC2CCN(CC(=O)N3CCc4cc(Cn5nc(-c6ccc7oc(N)nc7c6)c6c(N)ncnc65)ccc4C3)CC2)[C@H](C)C[C@H](C)/C=C/C=C/C=C/1C` [Example 69], the IC50 in the assay with P-P70S6K (T389) was 1 to 10 nM; with P-4E-BP1 (T37/46) it was 3.16 to 31.6 nM; in the assay with P-Akt (S473), over 1000 nM.
On the same counts, the results for `CC(C)n1nc(-c2ccc3oc(N)nc3c2)c2c(N)ncnc21` [MLN-128, MLN0128, reference compound] are 1 to 10 nM, 3.16 to 31.6 nM and 3.16 to 31.6 nM.
Take `CO[C@H]1C[C@@H]2CC[C@@H](C)[C@@](O)(O2)C(=O)C(=O)N2CCCC[C@H]2C(=O)O[C@H]([C@H](C)C[C@@H]2CC[C@@H](O)[C@H](OC)C2)CC(=O)[C@H](C)/C=C(\C)[C@@H](O)[C@@H](OC)C(=O)[C@H](C)C[C@H](C)/C=C/C=C/C=C/1C` [Rapamycin, (3S,6R,7E,9R, 10R, 12R, 14S, 15E, 17E, 19E,21S,23S,26R,27R,34aS)-9, 10, 12, 13, 14,21,22,23,24,25,26,27,32,33,34,34a-hexadecahydro-9,27-dihydroxy-3-[(1R)-2-[(1 S,3 R,4R)-4-hydroxy-3-methoxycyclohexyl]-1-methylethyl]-10,21-dimethoxy-6,8,12,14,20,26-hexamethyl-23,27-epoxy-3H-pyrido[2,1-c][1,4]-oxaazacyclohentriacontine-1,5,11,28,29(4H,6H,31H)-pentone]: the IC50 with P-P70S6K (T389) is under 1 nM; in the assay with P-4E-BP1 (T37/46) it was over 1000 nM; with P-Akt (S473) it was over 1000 nM.
